Results on 35 compounds are retold here after BindingDB's records for doi:10.7270/Q2251GJ9 (The Scripps Research Institute Molecular Screening Center, 2007).

Structures are written as SMILES. Bounds are passed on as bounds.

Sequence of Sphingosine 1-phosphate receptor 1 (P21453 whole entry): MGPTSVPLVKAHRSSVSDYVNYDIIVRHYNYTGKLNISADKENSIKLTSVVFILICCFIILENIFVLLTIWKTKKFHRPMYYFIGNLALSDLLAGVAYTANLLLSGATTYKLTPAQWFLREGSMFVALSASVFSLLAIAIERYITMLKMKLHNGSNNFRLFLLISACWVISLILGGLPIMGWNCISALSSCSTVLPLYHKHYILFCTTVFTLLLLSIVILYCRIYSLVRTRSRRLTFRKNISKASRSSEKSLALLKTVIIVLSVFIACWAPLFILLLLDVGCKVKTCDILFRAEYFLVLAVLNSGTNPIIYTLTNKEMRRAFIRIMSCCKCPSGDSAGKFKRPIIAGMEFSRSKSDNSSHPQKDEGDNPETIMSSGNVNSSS

One assay addresses Sphingosine 1-phosphate receptor 1 (Homo sapiens, UniProt P21453). The assay is described as follows: S1P1 receptor agonists, dose response, cell-based, agonist mode, 60K MLSMR set (AID 468).
Details: not given
On to `O=C(CSc1nc2ccccc2o1)Nc1ccc(N2CCOCC2)c(Cl)c1` [2-(1,3-benzoxazol-2-ylsulfanyl)-N-(3-chloranyl-4-morpholin-4-yl-phenyl)ethanamide], for which the EC50 is 1.02 µM.

For `CCCCn1nnnc1SCC(=O)c1ccc(C)c(C)c1` [2-(1-Butyl-1H-tetrazol-5-ylsulfanyl)-1-(3,4-dimethyl-phenyl)-ethanone], the half-maximal effective concentration (EC50) came out at 5.96 µM.

The compound `CCC(C)c1ccc2oc(-c3ccc(NC(=O)Cn4cnc5c(=O)n(C)c(=O)n(C)c54)cc3)nc2c1` (stereo not given) [2-(2,6-diketo-1,3-dimethyl-purin-9-yl)-N-[4-(5-sec-butyl-1,3-benzoxazol-2-yl)phenyl]acetamide] registered an EC50 of 2.02 µM.

`Clc1ccc(OCc2nnc(-c3ccccc3Br)o2)c(Cl)c1` [2-(2-bromophenyl)-5-[(2,4-dichlorophenoxy)methyl]-1,3,4-oxadiazole] came in with an EC50 above 95 µM.

`CC(C)COC(=O)NCCOC(=O)Nc1cccc(Cl)c1` [2-(2-methylpropoxycarbonylamino)ethyl N-(3-chlorophenyl)carbamate] displayed an EC50 of 6.17 µM.

Regarding `O=C(CSCC(=O)N1CCCCC1)Nc1nc(-c2cccs2)cs1` [2-(2-oxidanylidene-2-piperidin-1-yl-ethyl)sulfanyl-N-(4-thiophen-2-yl-1,3-thiazol-2-yl)ethanamide], the EC50 was above 30 µM.

As for `CCOc1ccc(-c2nnc(-c3ccco3)o2)cc1OCC` [2-(3,4-Diethoxy-phenyl)-5-furan-2-yl-[1,3,4]oxadiazole], a half-maximal response (EC50) required 1.18 µM.

`CCOc1ccc(-c2nnc(-c3cccs3)o2)cc1OCC` [2-(3,4-Diethoxy-phenyl)-5-thiophen-2-yl-[1,3,4]oxadiazole] showed an EC50 of 5.93 µM.

On to `CCOc1ccc(-c2nnc(-c3cccnc3)o2)cc1OCC` [2-(3,4-diethoxyphenyl)-5-(3-pyridinyl)-1,3,4-oxadiazole], for which the concentration giving a half-maximal response (EC50) is 3.28 µM.

`Cn1c(C(=O)N2CCc3ccccc3C2)cc2oc3ccccc3c21` [2-(3,4-dihydroisoquinolin-2(1H)-ylcarbonyl)-1-methyl-1H-[1]benzofuro[3,2-b]pyrrole] came in with an EC50 above 30 µM.

In turn, `COc1ccc(-c2nc3cc(NC(=O)Cc4ccc(OC)c(OC)c4)ccc3o2)cc1` [2-(3,4-dimethoxyphenyl)-N-[2-(4-methoxyphenyl)-1,3-benzoxazol-5-yl]acetamide] gave an EC50 of 8.03 µM.

Compound `O=C1C2CCCN2C(c2cccnc2)N1c1cccc(Cl)c1` (stereo not given) [2-(3-chlorophenyl)-3-(3-pyridinyl)-5,6,7,7a-tetrahydro-3H-pyrrolo[1,2-c]imidazol-1-one] had an EC50 above 95.1 µM.

`COc1ccccc1Oc1ccc2c(c1)C(=O)N(c1cccc(O)c1)C2=O` [2-(3-hydroxyphenyl)-5-(2-methoxyphenoxy)isoindole-1,3-dione] registered an EC50 of 2.36 µM.

`O=C(CSC1=NCCS1)Nc1ccnc2ccccc12` [2-(4,5-dihydro-1,3-thiazol-2-ylsulfanyl)-N-quinolin-4-yl-ethanamide] returned an EC50 of 2.44 µM. This EC50 and that of the compound before are within 1.5-fold of each other.

On to `O=C(CSc1ncnc2c1oc1ccccc12)N1CCCc2ccccc21` [2-(4-benzofuro[3,2-d]pyrimidinylthio)-1-(3,4-dihydro-2H-quinolin-1-yl)ethanone], for which the EC50 was above 3 µM.

In turn, `N#Cc1nc(-c2ccc(OCc3ccccc3)cc2)oc1NCc1cccnc1` [2-(4-benzoxyphenyl)-5-(3-pyridylmethylamino)oxazole-4-carbonitrile] gave an EC50 of 7.92 µM. That is a single-digit micromolar value.

As for `CN(C)c1oc(-c2ccc(OCc3ccccc3)cc2)nc1C#N` [2-(4-benzoxyphenyl)-5-(dimethylamino)oxazole-4-carbonitrile], it took 3.22 µM to reach a half-maximal effect (EC50).

In turn, `CNc1oc(-c2ccc(OCc3ccccc3)cc2)nc1C#N` [2-(4-benzoxyphenyl)-5-(methylamino)oxazole-4-carbonitrile] displayed an EC50 of 3.21 µM. The EC50 values of the last two compounds are within 1.5-fold of each other.

Regarding `COc1ccccc1Oc1ccc2c(c1)C(=O)N(c1ccc(O)cc1)C2=O` [2-(4-hydroxyphenyl)-5-(2-methoxyphenoxy)isoindole-1,3-dione], a half-maximal response (EC50) required 0.217 µM.

As for `CCCOc1ccc(-c2nnc(-c3ccncc3)o2)cc1` [2-(4-propoxyphenyl)-5-(4-pyridyl)-1,3,4-oxadiazole], the EC50 is above 95 µM.

On to `O=C(CSc1nnc(Cn2nnc3ccccc32)o1)N(Cc1ccc(F)cc1)c1ccccc1` [2-(5-Benzotriazol-1-ylmethyl-[1,3,4]oxadiazol-2-ylsulfanyl)-N-(4-fluoro-benzyl)-N-phenyl-acetamide], for which the EC50 turned out to be 5.09 µM.

`COC(=O)c1ccc2c(=O)n(C3CCCCC3)c(SCC#N)nc2c1` [2-(cyanomethylthio)-3-cyclohexyl-4-keto-quinazoline-7-carboxylic acid methyl ester] registered an EC50 of 9.9 µM. This EC50 lies about 1.9-fold higher than the previous one.

`CCOC(=O)c1sc2nc(NC(=O)C3CCCCC3)sc2c1C` [2-(cyclohexanecarbonylamino)-6-methyl-thieno[2,3-d]thiazole-5-carboxylic acid ethyl ester] gave an EC50 above 30 µM.

Compound `CCCCNc1cc(C)nc(NCc2ccccc2)n1` [2-N-benzyl-4-N-butyl-6-methylpyrimidine-2,4-diamine] registered an EC50 of 4.83 µM.

Consider `COc1ccc(-n2nnnc2S(=O)(=O)CC(=O)N2CCCCC2)cc1` [2-[1-(4-methoxyphenyl)tetrazol-5-yl]sulfonyl-1-piperidin-1-ylethanone], for which the EC50 was 5.25 µM.

`Cc1cc(C(=O)CSc2nc3ccccc3c(=O)n2C)c(C)n1Cc1ccc2c(c1)OCO2` [2-[2-[1-(1,3-benzodioxol-5-ylmethyl)-2,5-dimethyl-pyrrol-3-yl]-2-oxidanylidene-ethyl]sulfanyl-3-methyl-quinazolin-4-one] registered an EC50 of 5.41 µM.

The same assay, now with this note: inactive by the depositor's call.
The compound `CC1CCc2nc(NC(=O)CSc3nc4ccccc4o3)sc2C1` (stereo not given) [2-(1,3-benzoxazol-2-ylsulfanyl)-N-(6-methyl-4,5,6,7-tetrahydro-1,3-benzothiazol-2-yl)acetamide] showed a concentration giving a half-maximal response (EC50) of 57.8 µM.

In turn, `COc1ccc(-n2c(C)cc(C(=O)COC(=O)Cn3cnc4ccccc43)c2C)cc1` [2-(1-benzimidazolyl)acetic acid [2-[1-(4-methoxyphenyl)-2,5-dimethyl-3-pyrrolyl]-2-oxoethyl] ester] came in with an EC50 of 10.3 µM.

Compound `CCOC(=O)c1ccc2nc(NC(=O)c3ccco3)sc2c1` [2-(2-furoylamino)-1,3-benzothiazole-6-carboxylic acid ethyl ester] registered an EC50 of 16.3 µM.

Regarding `O=S(=O)(CCSc1ccccn1)c1nc2ccccc2s1` [2-(2-pyridin-2-ylsulfanylethylsulfonyl)-1,3-benzothiazole], the EC50 is 10.4 µM.

Compound `Cc1cc(C)n(-c2nc3ccccc3c(=O)n2OCCOc2ccccc2)n1` [2-(3,5-dimethyl-1-pyrazolyl)-3-(2-phenoxyethoxy)-4-quinazolinone] yielded an EC50 of 20 µM.

`Clc1ccc(-c2nc3nc4ccccc4nc3n2Cc2ccco2)cc1` [2-(4-chlorophenyl)-3-(2-furanylmethyl)imidazo[4,5-b]quinoxaline] yielded an EC50 of 25.3 µM.

As for `c1ccc(CSc2nnc(-c3cccs3)o2)cc1` [2-(benzylthio)-5-(2-thienyl)-1,3,4-oxadiazole], it took 20.9 µM to reach a half-maximal effect (EC50).

Consider `CCOc1nc(-c2ccccc2)ccc1-c1noc(-c2ccco2)n1` [2-Ethoxy-3-(5-furan-2-yl-[1,2,4]oxadiazol-3-yl)-6-phenyl-pyridine], for which the EC50 was found to be 16.8 µM.

In turn, `CN1CCN(C(=O)CSc2nc(-c3cccs3)cc(-c3cccs3)c2C#N)CC1` [2-[2-(4-methylpiperazin-1-yl)-2-oxidanylidene-ethyl]sulfanyl-4,6-dithiophen-2-yl-pyridine-3-carbonitrile] yielded an EC50 of 10.1 µM. Against the preceding compound, the EC50 is about 1.7-fold lower.

One may read the EC50 as the concentration giving half of the maximal effect. Low values mean an effect from little substance, high ones a need for much substance.
